# Target: Mitogen-activated protein kinase 14 (Homo sapiens, UniProt Q16539)
# Assay: Inhibition of p38-alpha MAP kinase
# Chain of Mitogen-activated protein kinase 14 (Q16539 whole entry): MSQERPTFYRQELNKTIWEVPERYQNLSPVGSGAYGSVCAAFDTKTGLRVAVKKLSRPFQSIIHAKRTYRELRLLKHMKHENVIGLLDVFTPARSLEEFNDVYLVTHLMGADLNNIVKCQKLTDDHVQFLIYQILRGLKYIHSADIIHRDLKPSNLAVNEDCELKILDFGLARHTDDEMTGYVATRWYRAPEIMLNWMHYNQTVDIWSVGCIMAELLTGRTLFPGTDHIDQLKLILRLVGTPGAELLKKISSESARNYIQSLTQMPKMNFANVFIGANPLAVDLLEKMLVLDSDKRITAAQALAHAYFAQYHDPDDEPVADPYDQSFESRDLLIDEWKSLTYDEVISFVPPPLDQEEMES
row,Compound,IC50
1,CC(C)n1ccc2cc(C(=O)N3CCc4c(cnn4-c4ccccc4Cl)C3)ccc21,39 nM
2,O=C(c1c(F)cccc1F)N1CCc2c(cnn2-c2ccccc2Cl)C1,68 nM
3,O=C(c1cc2ccccc2[nH]1)N1CCc2c(cnn2-c2ccccc2Cl)C1,154 nM
4,Cn1cc(C(=O)N2CCc3c(cnn3-c3ccccc3Cl)C2)c2ccccc21,40 nM
5,O=C(c1ccc2cc[nH]c2c1)N1CCc2c(cnn2-c2ccccc2Cl)C1,40 nM
6,Cn1ccc2cc(C(=O)N3CCc4c(cnn4-c4ccccc4Cl)C3)ccc21,30 nM
7,Cn1ccc2cc(C(=O)N3CCn4c(cnc4-c4ccc(F)cc4F)C3)c(Cl)cc21,50 nM
8,O=C(c1ccc(F)cc1F)N1CCn2c(cnc2-c2ccc(F)cc2F)C1,593 nM
9,CN(C)C(=O)C(=O)c1cn(C)c2cc(Cl)c(C(=O)N3CCn4c(cnc4-c4ccc(F)cc4F)C3)cc12,14 nM
10,CN(C)C(=O)C(=O)c1c[nH]c2ccc(C(=O)N3CCc4c(cnn4-c4ccccc4Cl)C3)cc12,37 nM
11,CN(C)C(=O)C(=O)c1cn(C)c2cc(Cl)c(C(=O)N3CCc4c(ncnc4-c4ccc(F)cc4F)C3)cc12,195 nM
12,COc1cc2c(ccn2C)cc1C(=O)N1CCn2c(cnc2-c2ccc(F)cc2F)C1,38 nM
13,COc1nc2[nH]ccc2cc1C(=O)N1CCn2c(cnc2-c2ccc(F)cc2F)C1,164 nM
14,O=C(c1c[nH]c2ccccc12)N1CCc2c(cnn2-c2ccccc2Cl)C1,55 nM
15,O=C(c1cccc2[nH]ccc12)N1CCc2c(cnn2-c2ccccc2Cl)C1,37 nM
16,O=C(c1c(F)cccc1F)N1CCc2c(cnn2-c2ccc(F)cc2Cl)C1,97 nM
17,COc1nc2[nH]cc(C(=O)C(=O)N(C)C)c2cc1C(=O)N1CCc2c(cnn2-c2ccccc2Cl)C1,29 nM
18,O=C(c1c(F)cccc1F)N1CCn2c(cnc2-c2ccc(F)cc2F)C1,167 nM
19,Cn1ccc2cc(C(=O)N3CCc4c(cnn4-c4ccccc4Cl)C3)c(Cl)cc21,26 nM
20,COc1cc2c(cc1C(=O)N1CCn3c(cnc3-c3ccc(F)cc3F)C1)c(C(=O)C(=O)N(C)C)cn2C,13 nM
21,COc1nc2[nH]ccc2cc1C(=O)N1CCc2c(cnn2-c2ccccc2Cl)C1,137 nM
22,COc1nc2[nH]cc(C(=O)C(=O)N(C)C)c2cc1C(=O)N1CCn2c(cnc2-c2ccc(F)cc2F)C1,29 nM
23,CN(C)C(=O)C(=O)c1c[nH]c2cc(Cl)c(C(=O)N3CCn4c(cnc4-c4ccc(F)cc4F)C3)cc12,11 nM
24,CN(C)C(=O)C(=O)c1cn(C)c2cc(Cl)c(C(=O)N3CCc4c(cnn4-c4ccccc4Cl)C3)cc12,33 nM
25,O=C(c1c(Cl)cccc1Cl)N1CCc2c(cnn2-c2ccccc2Cl)C1,112 nM
26,COc1nc2c(cc1C(=O)N1CCn3c(cnc3-c3ccc(F)cc3F)C1)c(C(=O)C(=O)N1CCC(O)C1)cn2C (racemic),16 nM

# From ChEMBL document CHEMBL1146251, “Synthesis and SAR of p38alpha MAP kinase inhibitors based on heterobicyclic scaffolds” (Bioorg Med Chem Lett, 2007)
